Test results published in patent publication US8367659B2, “Oxazinyl isoflavonoid compounds, medicaments and use” (Marshall Edwards, Inc., priority 2007, dated 2013).
Like-named read-outs stand apart in the source and are kept apart here.

Tests used:
[1] = Free radical scavenging with DPPH; details: for EC50: DPPH, read-out: Free radical scavenging ability EC50
Method: The antioxidant (free radical trapping) activity of test compounds was assessed using the stable free radical compound 2,2-diphenyl-1-picrylhydrazyl (DPPH). A stock solution of DPPH was prepared at a concentration of […] in ethanol and mixed for 10 minutes prior to use. Test compounds at a concentration of 100 μM were reacted with DPPH for, 20 minutes, alter which time the absorbance at 517 nm was determined. Initial screening of was done at 100 μM. The change in absorbance at 517 nm was compared to a reagent blank (DPPH with ethanol alone). […] The IC50 values were estimated as the concentration of test compound that caused a 0.6 change in absorbance (with 1.2 absorbance units representing total scavenging of the DPPH radical).
The antioxidant (free radical trapping) activity of test compounds was assessed using the stable free radical compound 2,2-diphenyl-1-picrylhydrazyl (DPPH). A stock solution of DPPH was prepared […] in ethanol and mixed for 10 minutes prior to use. Initial screening of test compound at a concentration of 100 μM was reacted with DPPH for 20 minutes, after which time the absorbance at 517 nm was determined. The change in absorbance was compared to a reagent blank (DPPH with ethanol alone). […] The IC50 value was estimated as the concentration of test compound that causes a 0.6 change in absorbance (with 1.2 absorbance units representing total scavenging of the DPPH radical).

[2] = system: NO synthesis in RAW 264.7 murine macrophages; assay: LPS-induced NO synthesis in RAW 264.7 murine macrophages (Griess); format: cell-based, mouse; details: 10 μM; relative to vehicle alone; FIG. 6
Method: The mouse macrophage cell line RAW 264.7 was cultured in DMEM supplemented with foetal calf serum (FCS), […] glutamine and 50 U/ml penicillin/streptomycin. Cells were treated with either test compound (in 0.025% DMSO) or vehicle alone, and added one hour before 50 ng/ml LPS. After incubation for 24 h, culture media was collected for PGE2 or TXB2 measurement by ELISA (Cayman Chemical), and TNFα measurement using an ELISA (Becton Dickinson). Nitrite concentration is a quantitative indicator of NO production and was determined by the Griess Reaction. Briefly, 100 μL of Griess reagent was added to 50 μL of each supernatant in duplicate. The absorbance at 550 nm was measured (Molecular Devices, SpectraMax 250 microplate spectrophotometer, CA, USA), and nitrite concentrations were determined against a standard curve of sodium nitrite. The percentage nitrite inhibition was calculated as: [100−(nitrite concentration of sample/nitrite of vehicle control LPS cells)×100]. Results Test compounds were examined a concentration of 10 μM. […] Consequently, to assess the effect of test compounds on various analytes, cell viability was taken into consideration with the use of the formula: Actual effect of test compound=measured effect−(effect on cell viability×measured effect)

[3] = system: TNFα synthesis in RAW 264.7 murine macrophages; assay: LPS-induced TNFα synthesis in RAW 264.7 murine macrophages; format: cell-based, mouse; details: 10 μM; relative to vehicle alone; FIG. 5
Method: The mouse macrophage cell line RAW 264.7 was cultured in DMEM supplemented with foetal calf serum (FCS), […] glutamine and 50 U/ml penicillin/streptomycin. Cells were treated with either test compound (in 0.025% DMSO) or vehicle alone, and added one hour before 50 ng/ml LPS. After incubation for 24 h, culture media was collected for PGE2 or TXB2 measurement by ELISA (Cayman Chemical), and TNFα measurement using an ELISA (Becton Dickinson). Test compounds were examined a concentration of 10 μM. […] Consequently, to assess the effect of test compounds on various analytes, cell viability was taken into consideration with the use of the formula: Actual effect of test compound=measured effect−(effect on cell viability×measured effect)

cancer cell lines = assay: Anti-cancer activity, cancer cell lines tested as a group (MTT); format: cell-based; details: CP70, HPAC and MM200
CP70 = assay: Anti-cancer activity, CP70 ovarian cancer cells (MTT); format: cell-based; details: 120 h, 5 days
HPAC = assay: Anti-cancer activity, HPAC pancreatic cancer cells (MTT); format: cell-based; details: Homo sapiens, 120 h, 5 days
[4] = target: T1, GAL4-PPARγ fusion protein (Homo sapiens, UniProt P37231); assay: PPARγ activity in transfected HEK293 cells (beta-lactamase reporter); format: cell-based; details: FIG. 13: 1 μM
T1 construct: host or cells: HEK293 (human embryonic kidney), stably transfected
T1 sequence (P37231 238-503 limits assumed): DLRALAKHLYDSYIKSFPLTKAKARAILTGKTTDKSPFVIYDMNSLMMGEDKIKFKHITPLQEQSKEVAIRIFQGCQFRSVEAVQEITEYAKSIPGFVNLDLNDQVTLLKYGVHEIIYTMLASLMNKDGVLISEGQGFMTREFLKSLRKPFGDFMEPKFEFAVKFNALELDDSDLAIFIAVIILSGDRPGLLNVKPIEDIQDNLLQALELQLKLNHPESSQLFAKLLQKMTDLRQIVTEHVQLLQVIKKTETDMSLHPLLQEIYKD
T1 sequence (P04386 1-147 partner limits assumed): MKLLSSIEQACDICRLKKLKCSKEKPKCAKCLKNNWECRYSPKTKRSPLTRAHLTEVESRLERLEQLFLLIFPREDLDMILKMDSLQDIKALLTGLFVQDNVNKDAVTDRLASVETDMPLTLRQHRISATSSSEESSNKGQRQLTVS
Method: Human HEK293 cells, stably transfected with the PPARγ ligand binding domain fused with the DNA binding domain of the GAL4 protein (GAL4-PPARγ fusion protein), produce beta-lactamase when incubated with PPARγ ligands. Transfected human kidney embryonic cells (Invitrogen Inc., Carlsbad, Calif.) were seeded onto matrigel in 96-well plates and allowed to attach overnight. The following day, vehicle alone (DMSO) or test compound at 1, 5 and 10 μM was added at varying concentrations to cells and incubated for 16-18 hours. Cells were then loaded with a FRET-based fluorescent substrate to assess beta-lactamase activity. Cells were protected from light, and incubated at room temperature for 2 h. Plates were read on a fluorescence plate reader with an excitation wavelength of 409 nm and emission wavelengths of 460 nm and 530 nm. Results were expressed as a ratio of these two wavelengths after the background (cell-free control wells) had been subtracted. PPARγ activity was thus determined by measuring beta-lactamase activity as assessed by a fluorescent product to substrate ratio.

MM200 = assay: Anti-cancer activity, MM200 melanoma cells (MTT); format: cell-based; details: 120 h; 5 days, MTT
[5] = system: NFκB-promoter activity in TNFa-stimulated THP-1 monocyte/macrophages; assay: NFκB promoter activity in TNFα-stimulated THP-1 cells (beta-lactamase reporter); format: cell-based, human; details: 30 μM; FIG. 19
Method: The assay utilizes a genetically modified THP-1 cell line and GeneBLAzer® beta-lactamase technology (Invitrogen Corp). The human THP-1 monocyte/macrophages contain a stably-transfected beta-lactamase reporter gene under control of the NFκB response element They respond to stimulation with TNF-a, which leads to activation of the NFκB signaling pathway. Co-incubation of cells with TNF-a and test material allows quantitative determination of the ability of test material to inhibit TNFa-stimulated beta-lactamase production. Inflammatory index is calculated as the ratio of beta-lactamase product to beta-lactamase substrate. In brief, genetically modified THP-1 cells were seeded into wells of a 96-well plate (50×10^3 cells/well) in the presence of RPMI 1640 medium (70 μl). TNFα was added to each well (10 μl) to give a final concentration of 7.5 ng/ml. Dialyzed bovine serum was added (10 μl). Compounds dissolved in DMSO (10 μL) were then added (5 wells for each compound). Each plate contained a no-cell control (4 wells), a no-serum control (4 wells) and two serum controls. Plates were incubated for 5 h at 37° C. to allow for NFκB-stimulated beta-lactamase production. LiveBLAzer™ FRET B/G Substrate (CCF4-AM) substrate was then added to assay. CCF4-AM is a Forster resonance energy transfer (FRET) based substrate for beta-lactamase developed by Invitrogen Corp. Once CCFA-AM enters a cell, it is converted to negatively charged CCF4 by endogenous esterases. Excitation of this substrate at 409 nm leads to efficient FRET between the coumarin and fluorescein moieties, resulting in a green fluorescence detectable at 530 nm. The presence of beta-lactamase leads to cleavage of CCF4 and results in a loss of FRET, resulting in a robust blue fluorescent signal detectable at 460 nm. Thus, activity of beta-lactamase (a marker of NFκB-promoter activity) is measured as a product to substrate ratio (blue/green fluorescence ratio: 460 nm/530 nm). The determination of inflammatory index has a within-plate CV of 2.1% and a between-plate CV of 8.9% This comparative study was conducted according to the assay method set out in the example at Section 2.4 above.

red blood cells (RBC) = assay: Peroxyl radical (AAPH)-induced red blood cell lysis; format: cell-based
Method: Freshly collected heparinised venous blood (10 ml, on ice) was aliquotted into 1.8 ml sterile Eppendorf tubes and centrifuged for 10 minutes at 2600 rpm at 4° C. Plasma and buffy coat layers were removed (approximately […]) and packed red blood cells (RBC) were then washed by the addition of […], ice cold PBS. This washing procedure was repeated twice. Packed RBC were resuspended by the addition of 900 ml of ice-cold, sterile PBS (and termed RBC stock). RBC stocks were stored at 4° C. for a maximum of three days. All working suspensions of RBC were prepared fresh daily by diluting […] of RBC stock into 10 ml of ice-cold, sterile PBS and […] added to each well.
Stocks of AAPH were freshly prepared for individual experiments as follows. AAPH (1.22 gm) was dissolved in 7.5 ml of PBS to yield a 4× stock at 600 mM and […] aliquots (final concentration of 150 mM) were then added to each well to initiate the lysis assay. Stock solutions of test compounds (40 mM in 100% DMSO) were diluted in sterile PBS to yield final concentrations of […] per well. Appropriate controls were included in each experiment. All compound dilutions were adjusted to give final DMSO concentrations in each well of 0.25%. Peroxy-induced RBC lysis assays were performed in 96-flat bottom well microtitre plates with a total volume of […] per well. Turbidity of RBC suspensions were monitored using a Tecan microplate reader at 690 nm (37° C.) with gentle vortexing. Assays were performed in quadruplicate and readings were taken every 5 minutes over 5 hours. RBC lysis curves were constructed by plotting absorbance (mean of 4 readings) against time. Time to half-lysis was calculated by taking the highest absorbance reading (no lysis) and the lowest absorbance reading (maximum lysis). The sum of these two readings divided by two gave the absorbance at half-lysis. Simple regression analysis was used to calculate the time at which half-lysis absorbance occurred.
This comparative study was conducted according to the assay method set out in the example at Section 3.3 above.

[6] = 20 minutes, absorbance 517 nm, Table 4

SMILES | EC50 [1, 6] [µM] | mean change of LPS-induced NO synthesis [2] | mean change of LPS-induced TNFα synthesis [3] | activity against CP70, HPAC and MM200 cell lines (cancer cell lines) | IC50 (CP70) [µM] | IC50 (HPAC) [µM] | PPARγ activation, increase in beta-lactamase activity over media only control [4] | IC50 (MM200) [µM] | free radical scavenging / antioxidant activity in DPPH screen ([1]; 100 μM, ΔAbs>0.3 criterion) | EC50 ([1]; comparative, Table 13) [µM] | NFκB inhibition [5] | antioxidant activity, AAPH-induced time to half-lysis of red blood cells (red blood cells (RBC)) | Time taken to reach half-lysis, time (red blood cells (RBC); test compounds at 10 μM, vehicle 40.0, comparative, Table 14) [min]
CN1COc2cc3c(cc2C1)C=C(c1ccc(O)cc1)CO3 [Compound 4, 4-(3-methyl-2,3,4,8-tetrahydrochromeno[6,7-e][1,3]oxazin-7-yl)phenol] | 22.5 | greatest inhibition | greatest inhibition | – | – | – | – | – | – | – | – | – | –
COc1ccc(CN2COc3cc4c(cc3C2)C=C(c2ccc(O)cc2)CO4)cc1 [Compound 6, 4-(3-(4-Methoxybenzyl)-2,3,4,8-tetrahydrochromeno[6,7-e][1,3]oxazin-7-yl)phenol] | 24 | – | greatest inhibition | active | 5.08 ± 1.5 | 9.64 ± 3.6 | PPARγ agonist activity | 11.3 ± 0.2 | – | – | – | – | –
Cc1cccc(N2COc3cc4c(cc3C2)C=C(c2ccc(O)cc2)CO4)c1 [Compound 22, 4-(3-m-Tolyl-2,3,4,8-tetrahydrochromeno[6,7-e][1,3]oxazin-7-yl)phenol] | 21 | greatest inhibition | greatest inhibition | – | – | – | PPARγ agonist activity | – | – | – | – | – | –
O=c1c(-c2ccc(O)cc2)coc2cc(O)cc(O)c12 [genistein, reference compound] | – | – | – | – | – | – | – | – | no antioxidant activity | > 100 | inhibited NFκB | delaying the AAPH-induced time to half-lysis | 93.8
